Assay results as given in PubChem BioAssay (NCI).
Several values for one entry are separate records, joined by “and”; a condition that tells them apart may be missing. Equal entries are not always repeated.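 A five-concentration, 48-hour dose response in 96-well plates underlies each endpoint, interpolated linearly between surrounding concentrations. Here, GI50 denotes the concentration required for 50% inhibition of growth. TGI denotes the concentration required for complete inhibition of growth.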

What follows are compounds tested on LXFL 529 NSCLC (assay: NCI anticancer screen, dose series, 48 h).
`O=C(Nc1ccccc1-c1nc2ccccc2[nH]c1=O)c1ccccc1` gave a TGI of 69.2 µM. In the case of `CC1=[N+]([O-])c2ccccc2C(=O)C1=O`, the TGI is reported as > 100 µM. `CNC(=S)/N=C(\N)N(C)C` was tested, and the TGI was > 100 µM. `CC(=O)C1Cn2c(nc3ccccc32)C[Se]1` (centres undefined) showed a TGI of 10.4 µM. In the case of `COc1cc(Cc2nccc3cc(OC)c(OC)cc23)c(C(C)=O)cc1OC`, the TGI is reported as > 750 µM. For `CN(C)CCC1(C2=CCCC2)CC/C(=C\c2ccc(Cl)cc2)C1=O` (centres undefined), the TGI was 21.4 µM. `CC1=CC(C)(C)N=C2SC(c3ccc(N)cc3)=NN12` was tested, and the TGI was > 77.6 µM.

Each compound was assayed on DLD-1 colon (assay: NCI anticancer screen, dose series, 48 h).
For `O=C(/C=C/c1ccc(Cl)c(Cl)c1)c1ccc2ccccc2c1`, the TGI was > 100 µM. With `CCOC(=O)C(=O)Nc1ccccc1CC` the TGI was > 100 µM. `Cc1cc(NS(=O)(=O)c2ccc(Nc3c4ccccc4nc4c(C(=O)N5CCN(CCO)CC5)cccc34)cc2)no1` was tested, and the TGI was > 100 µM. In the case of `COc1cc2[nH]c3c(c2cc1OC)CCN[C@]31CC[C@]2(CC3c4c(cc(OC)c(O)c42)CCN3C)C[C@H]1OC` (some centres undefined), the TGI is reported as 81 µM. In the case of `O=C1c2ccccc2C(=O)C1(O)c1c[nH]c2ccccc12`, the TGI is reported as > 100 µM. `c1ccc(C2N3CCCCC3[C@@H]3c4[nH]c5ccccc5c4CCN23)nc1` (some centres undefined) was tested, and the TGI was > 100 µM. `O=C(Nc1cc(Cl)c(Cl)cc1Cl)C(=O)C1C(=O)NC(=S)NC1=O` was tested, and the TGI was > 100 µM. For `CCOC(=O)/C(C)=C(/O)C(=O)OCC`, the TGI was > 100 µM. With `O=C(O)CNS(=O)(=O)c1ccc(NC(=O)c2ccc([N+](=O)[O-])cc2)cc1` the TGI was > 100 µM. `CCCCNC1CCCCC[C@H]1O` (some centres undefined) was tested, and the TGI was > 100 µM. In the case of `COc1ccc2c3c([nH]c2c1[N+](=O)[O-])C(C)N(C)CC3` (centres undefined), the TGI is reported as > 100 µM. With `CCOC(=O)N[C@@H]1C(CC(=O)OC)O[C@H]2OC(C)(C)O[C@H]21` (some centres undefined) the TGI was > 100 µM. `CCCCCCCCCCCCCCCC(=O)OCC(C[As](=O)(O)O)OC(=O)CCCCCCCCCCCCCCC` (centres undefined) was tested, and the TGI was > 100 µM. `COc1cc(/C=C/c2ccc(OC)c(O)c2)cc(OC)c1` showed a TGI of 24.7 µM. `O=C(Nc1ccccc1-c1nc2ccccc2[nH]c1=O)c1ccccc1` gave a TGI of 68.2 µM. `CC1=[N+]([O-])c2ccccc2C(=O)C1=O` was tested, and the TGI was > 100 µM. With `CNC(=S)/N=C(\N)N(C)C` the TGI was > 100 µM. For `CC(=O)C1Cn2c(nc3ccccc32)C[Se]1` (centres undefined), the TGI was 13 µM. `COc1cc(Cc2nccc3cc(OC)c(OC)cc23)c(C(C)=O)cc1OC` was tested, and the GI50 was 118 µM and the TGI was 169 µM and 351 µM. Work on `CN(C)CCC1(C2=CCCC2)CC/C(=C\c2ccc(Cl)cc2)C1=O` (centres undefined) yielded a TGI of 20.6 µM. `CC1=CC(C)(C)N=C2SC(c3ccc(N)cc3)=NN12` was tested, and the TGI was > 68.9 µM. `O=C1C2C3C=C4c5ccccc5N(c5ccccc5)C4(C2C(=O)N1c1ccc([N+](=O)[O-])cc1)[C@H]1C(=O)N(c2ccc([N+](=O)[O-])cc2)C(=O)[C@@H]31` (some centres undefined) was tested, and the TGI was > 100 µM.

These compounds were tested on HOP-18 NSCLC (assay: NCI anticancer screen, dose series, 48 h).
With `COc1ccc(C2=C(Cl)c3cc(OC)c(OC)cc3C2Cl)cc1` (centres undefined) the TGI was 53.5 µM. `O=C(/C=C/c1ccc(Cl)c(Cl)c1)c1ccc2ccccc2c1` was tested, and the TGI was > 100 µM. For `CCOC(=O)C(=O)Nc1ccccc1CC`, the TGI was > 100 µM. With `Cc1[nH]c(=O)nc2[nH][nH]c(=O)c12` the TGI was > 100 µM. `Cc1cc(NS(=O)(=O)c2ccc(Nc3c4ccccc4nc4c(C(=O)N5CCN(CCO)CC5)cccc34)cc2)no1` was tested, and the TGI was > 100 µM. Compound `COc1cc2[nH]c3c(c2cc1OC)CCN[C@]31CC[C@]2(CC3c4c(cc(OC)c(O)c42)CCN3C)C[C@H]1OC` (some centres undefined) has a TGI of 46.7 µM. In the case of `c1ccc(C2N3CCCCC3[C@@H]3c4[nH]c5ccccc5c4CCN23)nc1` (some centres undefined), the TGI is reported as > 100 µM. For `O=C(Nc1cc(Cl)c(Cl)cc1Cl)C(=O)C1C(=O)NC(=S)NC1=O`, the TGI was > 100 µM. For `COc1ccc(CN2CC(C)(C)C2=O)c(OC)c1`, the TGI was > 100 µM. In the case of `CCOC(=O)/C(C)=C(/O)C(=O)OCC`, the TGI is reported as > 100 µM. In the case of `O=C(O)CNS(=O)(=O)c1ccc(NC(=O)c2ccc([N+](=O)[O-])cc2)cc1`, the TGI is reported as > 100 µM. In the case of `CCCCNC1CCCCC[C@H]1O` (some centres undefined), the TGI is reported as > 100 µM. Compound `COc1ccc2c3c([nH]c2c1[N+](=O)[O-])C(C)N(C)CC3` (centres undefined) has a TGI of 84.9 µM. In the case of `CCOC(=O)N[C@@H]1C(CC(=O)OC)O[C@H]2OC(C)(C)O[C@H]21` (some centres undefined), the TGI is reported as > 100 µM. `CCCCCCCCCCCCCCCC(=O)OCC(C[As](=O)(O)O)OC(=O)CCCCCCCCCCCCCCC` (centres undefined) was tested, and the TGI was > 100 µM. For `C=C(C)CCN[Si](c1ccccc1)(c1ccccc1)C(C)(C)C`, the TGI was 33.4 µM. With `CC1=[N+]([O-])c2ccccc2C(=O)C1=O` the TGI was > 100 µM. For `CNC(=S)/N=C(\N)N(C)C`, the TGI was > 100 µM. With `CC(=O)C1Cn2c(nc3ccccc32)C[Se]1` (centres undefined) the TGI was 5.44 µM. With `COc1cc(Cc2nccc3cc(OC)c(OC)cc23)c(C(C)=O)cc1OC` the GI50 was 115 µM and the TGI was > 300 µM and 252 µM. `CN(C)CCC1(C2=CCCC2)CC/C(=C\c2ccc(Cl)cc2)C1=O` (centres undefined) gave a TGI of 24.8 µM. With `CC1=CC(C)(C)N=C2SC(c3ccc(N)cc3)=NN12` the TGI was > 100 µM. In the case of `O=C1C2C3C=C4c5ccccc5N(c5ccccc5)C4(C2C(=O)N1c1ccc([N+](=O)[O-])cc1)[C@H]1C(=O)N(c2ccc([N+](=O)[O-])cc2)C(=O)[C@@H]31` (some centres undefined), the TGI is reported as > 100 µM.
